Test results as given in the supplement of paper PMC8967900.

Experiments:
Experiment in all cases: selective drug sensitivity score (sDSS, relative to normal bone marrow) (sDSS (score)); higher = more potent and effective on the cell line relative to normal bone marrow cells
Conditions in all cases: 72 h
LC4-1 = system: LC4-1
NALL-1 = system: NALL-1
SUP-B15 = system: SUP-B15
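Also: ALL cell lines in 384-well plates, five doses spanning 10,000-fold, each plate scaled between vehicle and 100 µmol/L benzalkonium chloride controls, sDSS an adapted area-under-curve metric.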

Compound | selective drug sensitivity score (LC4-1) | selective drug sensitivity score (NALL-1) | selective drug sensitivity score (SUP-B15)
Oc1ccc2c(c1)CC[C@H](c1ccccc1)[C@@H]2c1ccc(OCCN2CCCC2)cc1 [Lasofoxifene] (top concentration 1000 nM) | -1.28 | -1.28 | -1.28
CCn1cc(-c2ccnc3[nH]c(-c4cccc(CN(C)C)c4)cc23)c(-c2ccc(NC(=O)N(C)C)cc2)n1 (top concentration 1000 nM) | 23.4 | 13.1 | 23.9
CC(C)n1cnc2c(NCCc3ccc(O)cc3)nc(-c3csc4ccccc34)nc21 [StemRegenin_1] (top concentration 10000 nM) | -0.1 | -1.4 | -0.2
CC[C@]12C=CCN3CC[C@@]4(c5cc([C@@]6(C(=O)OC)C[C@@H]7C[C@@H](C(C)(F)F)CN(Cc8c6[nH]c6ccccc86)C7)c(OC)cc5N(C)[C@H]4[C@@](O)(C(=O)OC)[C@@H]1OC(C)=O)[C@@H]32 [Vinflunine] (top concentration 1000 nM) | 4.48 | 2.98 | 3.48
CC(C)Cn1cnc2c(N)nc3ccccc3c21 [Imiquimod] (top concentration 2500 nM) | 0.3 | 0 | 0.3
CC(C)(C)C[C@@H]1N[C@@H](C(=O)N[C@H]2CC[C@H](O)CC2)[C@H](c2cccc(Cl)c2F)[C@]12C(=O)Nc1cc(Cl)ccc12 (top concentration 10000 nM) | 12.4 | -7.64 | 20.4
COc1cc2/c(=N/c3ccc(Br)cc3F)nc[nH]c2cc1OCC1CCN(C)CC1 [Vandetanib] (top concentration 1000 nM) | -0.22 | 2.28 | 1.08
CCOCc1nc2c(N)nc3ccccc3c2n1CC(C)(C)O [Resiquimod] (top concentration 10000 nM) | -4.12 | -4.92 | -1.22
O=C(Nc1cccnc1)N1CCC(Cc2cccc(Oc3ccc(C(F)(F)F)cn3)c2)CC1 [PF-3845] (top concentration 10000 nM) | -0.54 | -1.24 | 3.16
COc1cc(N2CCC(N3CCN(C)CC3)CC2)ccc1Nc1ncnc(Nc2ccccc2S(=O)(=O)C(C)C)n1 [ASP3026] (top concentration 10000 nM) | -0.44 | -2.64 | 1.16
COC(=O)c1ccc([C@H]2c3[nH]c4ccccc4c3C[C@H](C(=O)OC)N2C(=O)CCl)cc1 [RSL3] (top concentration 10000 nM) | 0 | 5.2 | 0
CC[C@H](C)C(=O)O[C@H]1C[C@H](O)C=C2C=C[C@H](C)[C@H](CC[C@@H](O)C[C@@H](O)CC(=O)O)[C@H]21 [Pravastatin] (top concentration 10000 nM) | 3.04 | -0.66 | 0.04
C=CCN(/C=C1/C(=O)O[C@H](COC)[C@@]2(C)C1=C(O)C(=O)C1=C2[C@H](OC(C)=O)C[C@]2(C)C(=O)CC[C@@H]12)CC=C [Sonolisib] (top concentration 10000 nM) | -0.56 | -0.76 | -0.76
CCC(C)(C)C(=O)O[C@H]1C[C@@H](C)C=C2C=C[C@H](C)[C@H](CC[C@@H]3C[C@@H](O)CC(=O)O3)[C@H]21 [Simvastatin] (top concentration 10000 nM) | 2.18 | 3.48 | -0.72
CN(C)C[C@@H]1CCn2cc(c3ccccc32)C2=C(C(=O)NC2=O)c2cn(c3ccccc23)CCO1 [Ruboxistaurin] (top concentration 10000 nM) | 0.16 | -3.04 | 0.06
CC#CC(=O)N1CCC[C@H]1c1nc(-c2ccc(C(=O)Nc3ccccn3)cc2)c2c(N)nccn12 [Acalabrutinib] (top concentration 1000 nM) | -0.1 | -0.1 | 3.7
C[C@H]1CNCCCN1S(=O)(=O)c1cccc2cncc(F)c12 [Ripasudil] (top concentration 10000 nM) | -0.22 | -0.22 | 4.88
CC1(C)CNc2cc(NC(=O)c3cccnc3NCc3ccncc3)ccc21 [Motesanib] (top concentration 10000 nM) | -0.22 | -0.22 | -0.22
Cc1c(F)cc(C(=O)NC2CC2)cc1-c1ccc(C(=O)NCC(C)(C)C)cn1 [Losmapimod] (top concentration 10000 nM) | 3.32 | -0.18 | 0.42
C[C@]12CC[C@H](O)CC1=CC[C@@H]1[C@@H]2CC[C@]2(C)C(c3cccnc3)=CC[C@@H]12 [Abiraterone] (top concentration 5000 nM) | 1.18 | 3.08 | -0.02
O=c1[nH]cc(F)c(=O)[nH]1 [Fluorouracil] (top concentration 10000 nM) | 5.16 | -0.24 | 3.46

Compound | selective drug sensitivity score (LC4-1) | selective drug sensitivity score (NALL-1) | selective drug sensitivity score (SUP-B15)
CNC(=O)c1ccc(-c2cnc3ncc(Cc4ccc5ncccc5c4)n3n2)cc1F [Capmatinib] (top concentration 1000 nM) | 0.64 | -0.06 | -0.06
COc1cc(NS(C)(=O)=O)ccc1Nc1c2ccccc2nc2ccccc12 [Amsacrine] (top concentration 10000 nM) | 15.5 | 5.66 | 23.6
C=C1C[C@@H]2CC[C@@]34C[C@H]5O[C@H]6[C@@H](O3)[C@H]3O[C@H](CC[C@@H]3O[C@H]6[C@H]5O4)CC(=O)C[C@@H]3[C@@H](OC)[C@@H](C[C@H](O)CN)O[C@H]3C[C@H]3O[C@@H](CC[C@@H]1O2)C[C@@H](C)C3=C [Eribulin] (top concentration 1000 nM) | 24 | 15.8 | 25.7
CS(=O)(=O)CCNCc1ccc(-c2ccc3ncnc(Nc4ccc(OCc5cccc(F)c5)c(Cl)c4)c3c2)o1 [Lapatinib] (top concentration 1000 nM) | 0 | 0 | 0
Cc1c(Cn2c(C)nc3c(C(=O)O)cc(N4CCOCC4)cc32)cccc1C(F)(F)F (top concentration 10000 nM) | -0.02 | 0.68 | 0.38
O=C1CN2Cc3c(ccc(Cl)c3Cl)N=C2N1 [Anagrelide] (top concentration 10000 nM) | 0 | 1.1 | 0
CC1(C)NC(=O)N(c2ccc([N+](=O)[O-])c(C(F)(F)F)c2)C1=O [Nilutamide] (top concentration 10000 nM) | -0.48 | 7.02 | -0.48
COc1cc2c(cc1OCCCN1CCCC1)N=C(N)C21CCC1 [A-366] (top concentration 25000 nM) | -1.24 | -1.84 | -1.14
Nc1nc(N)c2nc(-c3cccc(O)c3)c(-c3cccc(O)c3)nc2n1 [TG100-115] (top concentration 10000 nM) | 0.1 | 4.6 | -0.3
COc1cc2ncnc(Nc3ccc(F)c(Cl)c3)c2cc1NC(=O)/C=C/CN1CCCCC1 [Dacomitinib] (top concentration 1000 nM) | -0.94 | -1.64 | -1.34
Cc1ccc(F)c(NC(=O)Nc2ccc(-c3cccc4[nH]nc(N)c34)cc2)c1 [Linifanib] (top concentration 1000 nM) | -1.12 | -1.12 | -1.12
Oc1ncnc2[nH]ncc12 [Allopurinol] (top concentration 10000 nM) | 0.06 | -0.64 | 0.36
CC/C(=C(\c1ccccc1)c1ccc(OCCN(C)C)cc1)c1ccccc1 [Tamoxifen] (top concentration 10000 nM) | 4.12 | 3.82 | 3.02
CCNC(=O)CCC/C=C\C[C@@H]1[C@@H](/C=C/[C@@H](O)CCc2ccccc2)[C@H](O)C[C@@H]1O [Bimatoprost] (top concentration 5500 nM) | 0 | 0 | 0
N#CC(c1ccnc(OCc2ccc(CN3CCOCC3)cc2)n1)c1nc2ccccc2s1 (stereo unspecified) [Bentamapimod] (top concentration 10000 nM) | 2.34 | 1.14 | 2.34
CN[C@@H](C)C(=O)N[C@H]1CN(C(=O)CC(C)C)CC[C@H]2CC[C@@H](C(=O)NC(c3ccccc3)c3ccccc3)N2C1=O [AT-406] (top concentration 10000 nM) | -1.26 | 5.34 | -1.26
Nc1nc2cc(-c3ccc4ncc(C(=O)N5CCOCC5)n4c3)ccc2o1 [Serabelisib] (top concentration 10000 nM) | 0.86 | -0.64 | 1.26
O=C1c2c(O)ccc(O)c2C(=O)c2c(NCCNCCO)ccc(NCCNCCO)c21 [Mitoxantrone] (top concentration 1000 nM) | 6.74 | -5.06 | 15.7
CC1=C2C[C@H]3[C@@H](CC[C@@H]4C[C@H](NS(C)(=O)=O)CC[C@@]43C)[C@@H]2CC[C@@]2(C1)O[C@@H]1C[C@H](C)CN[C@H]1[C@H]2C [Saridegib] (top concentration 10000 nM) | 0.54 | -0.26 | 0.64
CNC(=O)c1cccc2cc(Oc3ccnc4cc(OCC5(N)CC5)c(OC)cc34)ccc12 [Lucitanib] (top concentration 10000 nM) | 1.68 | 0.58 | 3.48
Cc1cccc(-c2nn3c(c2-c2ccnc4ccc(C(N)=O)cc24)CCC3)n1 [Galunisertib] (top concentration 1000 nM) | 0 | 0 | 0
